The values below come from US5474986A, “Method for treating galabiose-binding bacteria infections” (priority 1988, dated 1995).

The assay has as its system E. coli HB101/pPAP5 (agglutination of human erythrocytes). Put plainly: Inhibition of haemagglutination (HA inhibition) of human erythrocytes by E. coli. To be noted: for IC50: Escherichia coli, Erythrocyte, inhibition of agglutination of human erythrocytes by E. coli. In kind it is cell-based. The source says:
Bacterial strain HB101/pPAPS. Plasmid pPAP5 carries the pap gene cluster isolated from the uropathogenic E.coli isolate J96. The clone produces P pill that mediate agglutination of human erythrocytes by binding to the galabiose-containing P-blood group antigens present on the erythrocyte surface. The galabiose binding property resides in the PapG gene product which is present at the tip of the P pilus as a minor component.
HA of a 1% human P erythrocyte suspension in phosphate-buffered saline was determined for agar-grown organisms by suspending the bacteria to a Klett of 490 (ca 1×10^9 bacteria/mL). A sample of the bacterial suspension (25 μL) was serially diluted in microtiter plates containing 25 μL PBS in each well. An equal volume of erythrocyte suspension was added and after mixing, the plates were incubated at 4° C. for 18 h. The HA endpoint was defined as the dilution in the last well before erythrocyte buttons were formed. The titer was expressed as the reciprocal of the endpoint dilution.
The HA titer of the strains to be tested was determined as described above and the cells were diluted so that each strain gave a titer of 64. The concentration of each of the analogues 1-25 was adjusted to 100 mM and 25 μL of each analogue was serially diluted in microtiter plates containing 25 μL of PBS in each well. The bacterial suspension (25 μL; HA titer=64) was then added to each well. After incubation for 30 min at room temperature, human erythrocytes (1% suspension) were added by gentle mixing and the plates were incubated at 4° C. overnight. The endpoint was defined as the greatest dilution of the analogue (minimal concentration) that gave a 50% inhibition of the HA (IC50).
The IC50 -values given in the tables are mean values from 3 consecutive runs. The ratio of the IC50 -value for an inhibitor and compound 1 is the relative equilibrium constant, Krel. This value was used for the calculation of the difference free energy values (ΔΔG°) using the expression ΔΔG°=RTlnKrel. It should be stressed that the conclusions made here about the nature of the adhesin receptor is based on the assumption that all the inhibitors have similar over-all confirmations oriented in a similar way in the receptor side and that only one type of galablest-specific receptor is present in the adhesin.

The structures appear in SMILES notation.

Regarding `CO[C@@H]1O[C@H](CO)[C@H](O[C@H]2O[C@H](CO)[C@@H](O)[C@H](O)[C@H]2O)[C@H](O)[C@H]1O` [Compound 17], under “Table 1, mean of 3 consecutive runs”, half-maximal inhibition (IC50) was put at 5100 µM. The “Relative potency (%)” value (Table 1, in relation to compound 1, calculated from IC50) was 3.8%. The “ΔΔG^o” value (Table 1, ΔΔG°=RTlnKrel, Krel = IC50 ratio to compound 1) amounted to 1.82 kcal/mol.
In turn, `CC(C)CO[C@@H]1O[C@H](CO)[C@H](O[C@H]2O[C@H](CO)[C@H](O)[C@H](O)[C@H]2O)[C@H](O)[C@H]1O` [Compound 19] returned a half-maximal inhibitory concentration (IC50) (Table 2, glycoside analogs, mean of 3 runs) of 87 µM. The “Inhib. power (%)” value (Table 2, in relation to compound 1 (IC50 0.20 mM)) came to 220%. Also, under “Table 2, relative to compound 1 (IC50 0.20 mM)”, the “ΔΔG (kJmol^-1)” value is -1.8 kJmol^-1.
